US20250210201A1 (priority 2022, published 2025)

Experiments:
[1] = target: T1, complex II (Rattus norvegicus, UniProt P21913+Q641Z9+Q6PCT8+Q920L2); conditions: rat PD model; Jiang X et al. 2016; cited from earlier work
T1 construct: host or cells: rat PD model

[2] = system: primary skin fibroblasts; conditions: uncoupler as positive control (50 μM per method), 30 minutes
Description: Primary skin fibroblasts (10,000 cells per well) were seeded into Cell Carrier Ultra 96-well plates. The next day, fibroblast medium was removed and replaced by FBS-deprived DMEM containing 100 nM Tetramethylrhodamine, Ethyl Ester, Perchlorate (TMRE), a fluorescent dye that specifically accumulates in active, polarized mitochondria, or vehicle only (DMSO). The mitochondrial OXPHOS (OXPHOS-mito) uncoupler carbonyl cyanide m-chlorophenyl hydrazone (CCCP) was used—at the concentration of 50 μM—as a positive control of TMRE staining. Nuclei were stained with 1 μg/ml Hoechst 33342. Cells were incubated in the dark at 37° C. for 30 minutes before proceeding with high-throughput automated confocal microscopy analysis. Z-stack images were acquired at 20× magnification using the CellVoyager CV8000 High-Content Screening System.
An in-house Matlab image processing pipeline was used to quantify TMRE signal. The mitochondria channel was sum-projected on the x-y plane and preprocessed using a DoG filter of 33 pixel side-length, and sigmas set to 1 and 1.5 pixels, prior to thresholding (>10). Connected components with less than 6 pixels were removed from mitochondrial analysis. Total mitochondrial TMRE fluorescence intensity per field was normalized to nuclear area. […] Nine fields per well and at least two wells per condition were assessed for each of the three independent biological replicates.

[3] = system: mitochondiral complex I, II and IV; conditions: Kumar M et al. 2020; worded as 'proposed'; cited from earlier work
[4] = system: Complex I; conditions: rat model; Amarsanaa K et al. 2021; cited from earlier work

T1 sequence (Q920L2 35-656): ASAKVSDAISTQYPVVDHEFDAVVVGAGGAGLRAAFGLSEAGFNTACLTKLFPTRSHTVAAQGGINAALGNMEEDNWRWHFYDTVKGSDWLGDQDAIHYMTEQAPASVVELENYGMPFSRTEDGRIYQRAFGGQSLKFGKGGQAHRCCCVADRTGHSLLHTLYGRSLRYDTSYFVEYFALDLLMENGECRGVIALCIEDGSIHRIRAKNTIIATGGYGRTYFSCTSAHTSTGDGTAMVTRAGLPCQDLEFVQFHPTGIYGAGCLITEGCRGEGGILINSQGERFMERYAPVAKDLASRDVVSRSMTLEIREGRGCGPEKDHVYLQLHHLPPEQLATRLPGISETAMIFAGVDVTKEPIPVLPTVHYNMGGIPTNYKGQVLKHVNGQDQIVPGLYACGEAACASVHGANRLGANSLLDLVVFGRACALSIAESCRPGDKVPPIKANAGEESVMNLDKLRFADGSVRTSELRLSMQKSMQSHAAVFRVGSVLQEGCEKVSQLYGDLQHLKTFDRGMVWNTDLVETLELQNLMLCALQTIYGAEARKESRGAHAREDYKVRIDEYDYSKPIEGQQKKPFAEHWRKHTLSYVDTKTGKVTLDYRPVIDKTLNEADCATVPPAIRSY
T1 sequence (P21913 31-282): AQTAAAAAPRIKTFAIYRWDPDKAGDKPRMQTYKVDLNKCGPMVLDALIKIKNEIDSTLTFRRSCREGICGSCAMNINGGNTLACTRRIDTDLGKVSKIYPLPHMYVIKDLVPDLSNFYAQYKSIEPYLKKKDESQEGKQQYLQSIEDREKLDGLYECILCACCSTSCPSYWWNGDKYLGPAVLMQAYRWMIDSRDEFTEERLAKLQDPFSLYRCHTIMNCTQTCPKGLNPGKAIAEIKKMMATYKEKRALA
T1 sequence (Q641Z9 1-169): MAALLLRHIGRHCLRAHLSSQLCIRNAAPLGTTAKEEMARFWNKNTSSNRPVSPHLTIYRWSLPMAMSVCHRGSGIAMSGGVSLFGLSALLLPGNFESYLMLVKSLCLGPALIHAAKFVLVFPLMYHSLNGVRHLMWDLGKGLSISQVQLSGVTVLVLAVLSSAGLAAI
T1 sequence (Q6PCT8 57-159): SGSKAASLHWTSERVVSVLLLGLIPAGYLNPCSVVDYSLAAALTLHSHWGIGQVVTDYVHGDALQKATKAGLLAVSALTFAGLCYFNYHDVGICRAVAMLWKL

SMILES: COc1ccc(Cn2cc(-c3cc(C(F)(F)F)nc(S(C)(=O)=O)n3)ccc2=O)cc1OC [Compound A, 1-(3,4-dimethoxybenzyl)-5-(2-(methylsulfonyl)-6-(trifluoromethyl)pyrimidin-4-yl) pyridin-2 (1H)]
- dopaminergic neurons' death [1]: preventing dopaminergic neurons' death

SMILES: N#CC(C#N)=NNc1ccc(OC(F)(F)F)cc1 [FCCP, carbonyl cyanide p-trifluoromethoxyphenyl hydrazone]
- TMRE fluorescence (mitochondrial membrane potential, Δψm) [2]: robust reduction of TMRE fluorescence

SMILES: [Na+].[SH-] [NaHS]
- complex I, II and IV mediated oxygen consumption rate [3]: increasing mitochondiral complex I, II and IV mediated oxygen consumption rate

SMILES: COc1ccc(-c2cc(=O)c3c(OC)c(OC)c(OC)c(OC)c3o2)cc1OC [Nobiletin, 5,6,7,8,3′,4′-hexamethoxyflavone]
- activity of complex I [4]: restore activity of complex I
